Columns and labels:
[1] = Exposure after repeat oral administration in GLP toxicology study, rats; type: in vivo
Text: (§1) There were no marked sex-based differences in exposure, but in the 28-day toxicity study of compound (1-g) in rats, exposures were 1.4 to 1.9-fold higher in female rats compared to males.

[2] = rat, in vivo, po
in vivo = details: male, rat, po
[3] = target: T1, human cytochrome P450 CYP2C8 (Homo sapiens, UniProt P10632); assay: In vitro metabolism by CYP2C8; type: in vitro ADME
T1 sequence (P10632 1-490): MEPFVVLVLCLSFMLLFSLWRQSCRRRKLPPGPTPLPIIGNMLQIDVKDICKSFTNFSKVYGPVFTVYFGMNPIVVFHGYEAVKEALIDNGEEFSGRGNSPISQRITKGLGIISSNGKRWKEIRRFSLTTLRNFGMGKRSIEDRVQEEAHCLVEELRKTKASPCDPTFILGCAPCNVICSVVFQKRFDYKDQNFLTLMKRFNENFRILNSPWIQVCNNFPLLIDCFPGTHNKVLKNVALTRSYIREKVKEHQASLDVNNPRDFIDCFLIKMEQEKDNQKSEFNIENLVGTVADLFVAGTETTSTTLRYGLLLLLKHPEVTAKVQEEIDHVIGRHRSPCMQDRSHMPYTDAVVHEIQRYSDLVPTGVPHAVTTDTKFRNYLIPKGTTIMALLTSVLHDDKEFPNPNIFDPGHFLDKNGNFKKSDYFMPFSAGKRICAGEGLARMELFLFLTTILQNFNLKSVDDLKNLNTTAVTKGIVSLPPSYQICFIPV

[4] = target: human cytochrome P450 CYP3A5 (Homo sapiens, UniProt P20815); assay: In vitro metabolism by CYP3A5; type: in vitro ADME
[5] = Exposure after repeat oral administration in GLP toxicology study, dogs; type: in vivo
Text: as §1

CYP3A4 = CYP3A4 induction in vitro (activity, mRNA); type: in vitro ADME
CYP3A = assay: in vitro; details: human

Sequence of human cytochrome P450 CYP3A5 (P20815 whole entry): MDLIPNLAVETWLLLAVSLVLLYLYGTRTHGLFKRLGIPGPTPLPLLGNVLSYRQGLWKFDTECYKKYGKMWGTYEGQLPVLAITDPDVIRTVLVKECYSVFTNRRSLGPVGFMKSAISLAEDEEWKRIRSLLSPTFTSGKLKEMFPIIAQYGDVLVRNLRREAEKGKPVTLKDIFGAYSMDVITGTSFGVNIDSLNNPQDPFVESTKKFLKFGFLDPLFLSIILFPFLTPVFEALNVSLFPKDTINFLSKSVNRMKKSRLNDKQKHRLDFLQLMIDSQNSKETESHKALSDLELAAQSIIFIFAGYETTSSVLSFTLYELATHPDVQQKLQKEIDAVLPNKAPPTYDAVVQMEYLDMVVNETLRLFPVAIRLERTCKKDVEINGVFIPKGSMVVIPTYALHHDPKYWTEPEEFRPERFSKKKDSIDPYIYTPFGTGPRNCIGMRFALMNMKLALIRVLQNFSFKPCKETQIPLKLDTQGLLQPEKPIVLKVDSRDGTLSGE

For `O=C1CC[C@H](N2Cc3cc(N4CCN(CC5CCN(c6ccc([C@@H]7c8ccc(O)cc8OC[C@@H]7c7ccccc7)cc6F)CC5)CC4)ccc3C2=O)C(=O)N1` [compound (1-g), (S)-3-(5-(4-((1-(2-fluoro-4-((3S,4R)-7-hydroxy-3-phenylchroman-4-yl)phenyl)piperidin-4-yl)methyl)piperazin-1-yl)-1-oxoisoindolin-2-yl)piperidine-2,6-dione], the “accumulation with repeated dosing” value [1] was “No significant accumulation”, the “exposure (AUC0-24h) versus dose” value ([1]; repeat oral administration) was “increased in an approximately dose-dependent manner” and the “presence in mammary gland tissue, ovaries and uterus” value [2] was “quantifiable in mammary gland tissue”. The tissue exposure [2] was “highest exposures were observed in the large and small intestine with limited exposure to the brain”, the NOAEL at 28 day (in vivo) was 270 mg/kg/day and the “metabolism by CYP2C8” value [3] was “weakly metabolized”. For the same compound, the “metabolism by CYP3A5” value [4] was “weakly metabolized”, the “accumulation with repeated dosing” value [5] was “No significant accumulation” and the “change of exposure following repeat dosing” value ([5]; 45 mg/kg/day) was “decreased in females and slightly decreased in males”. For the same compound, the “dose proportionality of exposure” value ([5]; 5 to 45 mg/kg/day, repeat administration) was “slightly less than dose proportional”, the “exposure (AUC0-24h) versus dose” value ([5]; repeat oral administration) was “increased in an approximately dose-dependent manner” and the “CYP3A4 induction (activity or mRNA expression)” value (CYP3A4) was “did not significantly induce activity or mRNA expression”. It also gave an inhibition at 10 µM (CYP3A) of 31.3%.

Source: patent US20250381179A1, “CHROMAN-BASED COMPOUNDS FOR TREATING CANCER” (priority 2024, published 2025)
